Source: US8119640B2, “Hedgehog pathway antagonists methods of use” (The Board of Trustees of the Leland Stanford Junior …, priority 2008, dated 2012)
“Also recorded” adds a separate entry of the source.

How the values were obtained:
Smo = Smo (Mus musculus, UniProt P56726); assay: FRET assay for Smo multimerization (Smo-CFP/Smo-YFP); type: cell-based, murine; set-up: expressed in transfected cells; host or cells: NIH-3T3; settings: 10 μM HPIs; for Shh-induced fold change in Smo-CFP/Smo-YFP FRET: 10 μM cyclopamine, 500 nM SAG
Experimental: FRET assay for Smo multimerization. […] The cells were washed with PBS buffer, fixed with 4% paraformaldehyde for 20 min, and mounted on slides in 80% glycerol. Fluorescence signals were acquired with the 100× objective of a Zeiss LSM510 confocal microscope with the following conditions: CFP was excited by 458-nm light and the emission was collected through a BP 480-520-nm filter. YFP was excited by 514-nm light and the emission was collected through a BP 535-590-nm filter. The CFP signal was obtained before and after photobleaching YFP(CFPBP and CFPAP, respectively) using the full power of the 514-nm laser line for 1-2 min at the top half of each cell, leaving the bottom half unbleached as an internal control. The CFP fluorescence intensity was analyzed using Metamorph software (Universal Imaging Corp.), and the energy transfer efficiency was calculated using the formula: FRET %=((CFPAP−CFPBP)/CFPAP)×100. Photobleached areas in 11-19 cells were analyzed for each experimental condition.

[1] = test system: Math1-cre:SmoM2 cerebellar GNPs; assay: Math1-cre:SmoM2 cerebellar GNP proliferation; type: cell-based, mice; settings: for Proliferation of SmoM2-expressing GNPs (histone H3 phosphorylation): HPIs 10 μM, cyclopamine 5 μM, 24 h
Experimental: Analysis of Math1-cre:SmoM2 cerebellar GNP proliferation. To generate Math1-cre:SmoM2 tumors (11), a Math1-cre driver was used to conditionally express an activated Smo (SmoM2) allele. The Gt(ROSA)26Sortm1 (Smo/EYFP)Amc/J) mouse line was obtained from Jackson Laboratory (Bar Harbor, ME). […] Primary cultures from Math1-cre:SmoM2 tumors were established by triturating tumor tissue and plating the dissociated cells onto poly-D-ornithine-coated plates in DMEM-F-12 with N2 supplement, 25 mM KCI, and antibiotics. After culturing the cells for 24 h, they were treated with individual HPIs ([…]) for 24 h. Cell proliferation was then quantified by immunocytochemistry, and the expression of cyclin D1 and Gli1 were assessed by immunoblotting and RT-PCR, respectively. For immunocytochemistry, the primary cultures were fixed in 4% paraformaldehyde for 30 min at room temperature. […] Immunofluorescently stained cultures were imaged using a Nikon Eclipse E600 microscope equipped with a 20×objective. Approximately 30,000 cells were analyzed for each experimental condition. To detect proteins by immunoblotting, non-denaturing lysates were prepared from Math1-cre:SmoM2 cultures using lysate buffer (50 mM HEPES, pH 7.4, containing 150 mM NaCl, 1 mM EDTA, 2.5 mM EGTA, 0.1% Triton X-100, 10% glycerol, and 1 mM DTT), resolved on a 10% SDS-PAGE gel, and transferred onto a PVDF membrane. The membrane was incubated overnight at 4° C. with anti-cyclin D1 (Ab-3, Neomarkers; 1:1,000 dilution) or anti-β-tubulin (T4026, Sigma; 1:5,000 dilution) antibodies. […] For RT-PCR analyses, total RNA from Math1-cre:SmoM2cultures was extracted with TRIzol (Invitrogen) according to the manufacturer's protocol. The RNA was purified further […] with an RNeasy kit (Qiagen), and then reverse-transcribed with an Advantage RT-for-PCR Kit (Clontech) and random hexamer primers. […] Typical PCR conditions were as follows: an initial denaturation at 95° C. for 1 min followed by 28 cycles of denaturation at 94° C. for 45 sec, annealing at 60° C. for 45 sec, extension at 70° C. for 2 min, and a final extension at 72° C. for 7 min. The resulting PCR products were analyzed on 2% agarose gels.

FLAG-Gli2 = assay: Immunostaining of FLAG-Gli2 line: ciliary FLAG-Gli2 and primary cilia; type: cell-based, mouse; settings: for Ciliary levels of FLAG-Gli2: Shh-EGFP FLAG-Gli2 cells, immunofluorescence
Experimental: Immunostaining of FLAG-Gli lines and NIH-3T3 cells. The FLAG-Gli1-expressing or FLAG-Gli2-expressing clonal cell lines were seeded into 24-well plates (80,000 cells/well) containing poly-D-lysine-coated 12-mm glass coverslips. […] The cells were subsequently fixed in 4% paraformaldehyde for 10 min at room temperature followed by treatment with methanol at −20° C. for 2 to 5 min. The cells were washed with PBS, permeabilized with 0.2% Triton X-100 for 2 to 5 min, and then blocked with PBS containing 2% BSA for 3 h at room temperature. The coverslips were then treated with mouse anti-FLAG M2 antibody (Sigma; 1:1,000 dilution in blocking buffer) and rabbit anti-Arl13b (10) (1:1,000 dilution in blocking buffer) for 3 h at room temperature and washed 3×5 min with PBS. The coverslips were incubated next with Alexa Fluor 594-conjugated goat anti-mouse IgG and Alexa Fluor 488-conjugated donkey anti-rabbit IgG antibodies (Invitrogen; 1:1,000 dilutions in blocking buffer) for 2 h at room temperature. After washes with PBS and a 5-min incubation with 4,6-diamidino-2-phenylindole (DAPI), the samples were mounted using Prolong Gold (Invitrogen) and imaged with an upright Leica DM4500B compound microscope. In order to quantify ciliary Gli2 localization, a circular region with diameter equal to the average width of cilia as determined by the anti-Arl13b antibody staining was manually placed at the distal end of each cilium. Regions were transferred from the anti-Arl13b antibody image to the anti-FLAG antibody image, and FLAG staining intensities within those areas were assessed. Between 40 and 80 cilia were analyzed for each condition. To normalize ciliary FLAG-Gli2 levels with respect to compound-dependent changes in total FLAG-Gli2 levels, the absolute average intensities for each condition were divided by the fold change in FLAG-Gli2 levels, as determined by the quantitative immunoblotting described above. Quantification of ciliary FLAG-Gli1 levels was performed in an analogous manner. Since HPI-4 perturbs primary cilia formation, only Arl13b-positive structures that could be clearly identified as cilia were used for Gli protein quanitification in HPI-4-treated cells. To assess cytoplasmic microtubule structures in cells treated with the HPIs, NIH-3T3 cells were cultured on poly-D-lysine-coated 12-mm glass coverslip, treated with the HPIs, and fixed with 4% paraformalehyde as described above. In place of the methanol treatment, the cells were permeabilitized with PBS containing 0.1% Triton X-100 for 1 min. Washing, blocking, and antibody incubation steps were then conducted as before, using mouse anti-<-tubulin (DM1-A, Sigma, 1:2,000 in blocking buffer). Secondary antibody treatments, DAPI staining, mounting, and imaging were then conducted as described above.

Sequence of Smo (P56726 33-793): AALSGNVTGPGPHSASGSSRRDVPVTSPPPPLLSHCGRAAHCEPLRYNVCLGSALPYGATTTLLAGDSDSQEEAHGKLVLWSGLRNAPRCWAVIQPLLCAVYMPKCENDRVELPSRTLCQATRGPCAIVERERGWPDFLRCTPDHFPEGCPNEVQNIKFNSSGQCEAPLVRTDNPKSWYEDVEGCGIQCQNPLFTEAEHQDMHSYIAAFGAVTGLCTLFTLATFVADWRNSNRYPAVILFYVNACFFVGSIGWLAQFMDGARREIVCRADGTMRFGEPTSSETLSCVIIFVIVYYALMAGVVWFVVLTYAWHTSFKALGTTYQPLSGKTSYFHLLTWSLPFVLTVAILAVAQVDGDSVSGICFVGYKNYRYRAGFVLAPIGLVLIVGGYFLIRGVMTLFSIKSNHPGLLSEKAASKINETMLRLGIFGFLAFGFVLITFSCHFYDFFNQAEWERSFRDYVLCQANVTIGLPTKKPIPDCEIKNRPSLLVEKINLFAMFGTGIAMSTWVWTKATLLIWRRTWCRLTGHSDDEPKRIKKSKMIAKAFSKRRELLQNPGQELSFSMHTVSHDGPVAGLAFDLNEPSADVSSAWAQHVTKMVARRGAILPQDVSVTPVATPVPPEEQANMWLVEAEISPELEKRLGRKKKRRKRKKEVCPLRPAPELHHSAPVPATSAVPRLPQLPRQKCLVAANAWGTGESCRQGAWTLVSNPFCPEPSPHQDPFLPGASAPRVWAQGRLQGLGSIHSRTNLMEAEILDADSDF
Sequence of Smo (P56726 33-793): as above

Row | SMILES | Shh-induced fold change in Smo-CFP/Smo-YFP FRET (Smo) | Cellular levels of cyclin D1 protein and Gli1 transcripts in GNPs [1] | Proliferation of SmoM2-expressing GNPs (histone H3 phosphorylation) [1] | Basal Smo-CFP/Smo-YFP FRET levels (Smo) | Ciliary levels of FLAG-Gli2 (FLAG-Gli2) | Primary cilia formation (FLAG-Gli2; 30 μM HPI-4)
1 | COCCOC(=O)C1=C(C)NC2=C(C(=O)CC(c3ccccc3OC)C2)C1c1cccc(O)c1 (mixture of isomers) [Compound 8, 4-(3-Hydroxy-phenyl)-7-(2-methoxy-phenyl)-2-methyl-5-oxo-1,4,5,6,7,8-hexahydro-quinoline-3-carboxylic acid 2-methoxy-ethyl ester] | attenuated the fold-change in Smo-CFP/Smo-YFP FRET upon Shh stimulation | reduced cellular levels of cyclin D1 protein and Gli1 transcripts | significantly inhibited the proliferation | – | – | –
2 | OCCNc1nc(N2CCN(c3ccccc3)CC2)nc2ccccc12 [Compound 11] | – | – | did not block GNP proliferation | decreased basal FRET levels | increased ciliary levels of FLAG-Gli2 | –
3 | COc1ccc(OC)c2c1cc1n2CC(C)(C(=O)NC2CCCCCCC2)N(CCN(C)C)C1=O (stereo not drawn) [Compound 17] | attenuated the fold-change in Smo-CFP/Smo-YFP FRET upon Shh stimulation | – | did not block GNP proliferation | decreased basal FRET levels | increased ciliary levels of FLAG-Gli2 | –
4 | N#CC(C(=O)c1ccc(Cl)cc1Cl)=C1NC(=O)c2ccccc2N1 [Compound 18] | – | reduced cellular levels of cyclin D1 protein and Gli1 transcripts | significantly inhibited the proliferation | decreased basal FRET levels | increased ciliary levels of FLAG-Gli2 | truncated primary cilia; also recorded: inhibits primary cilia formation
